# Tests used:
# Settings in all cases: 72 h
# [1] = test system: HL-60; experiment: area under dose-response curve (viability, 1 nM-10 uM) (fraction (0-1)); higher = more sensitive
# Procedure, shortened: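 A rescreen of the full library used HL-60 cells in RPMI 1640 with 10% FBS on 384-well plates, run in duplicate at five tenfold concentrations (1–10,000 nM). Each screen included DMSO or 100 nM of one of three metabolic inhibitors and ran 72 h at 37 °C, 5% CO2. CellTiter-Glo viability was scaled between DMSO and 10 μM proteasome-inhibitor wells. Any area under the curve comes from four-parameter log-logistic fits with drc and PharmacoGx.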
# [2] = test system: myeloid leukemia patient primary cells Pat.1; experiment: cell viability (% survival relative to DMSO control); higher = less cytotoxic
# Procedure, shortened: (§1)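 Seventy compounds were pre-printed on 384-well plates at five tenfold concentrations between 1 and 10,000 nM, in duplicate. Thawed mononuclear cells purified by Ficoll from AML or CML patients were added at 10,000 cells/well in RPMI 1640 with 10% FBS for 72 h. Viability by CellTiter-Glo was normalised to DMSO and 10 μM proteasome-inhibitor wells. Where stated, area under the curve was taken from log-logistic fits made with the drc and PharmacoGx R packages, each fit having four parameters.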
# [3] = test system: myeloid leukemia patient primary cells Pat.7; experiment: as above
# Procedure, shortened: as §1
# [4] = test system: myeloid leukemia patient primary cells Pat.3; experiment: as above
# Procedure, shortened: as §1
# [5] = co-treatment: GSK2194069 100 nM
# [6] = co-treatment: pictilisib 100 nM
Compound,area under dose-response curve ([1]; co-treatment: AZD3965 100 nM),area under dose-response curve ([1]; co-treatment: DMSO vehicle),"area under dose-response curve [1, 5]","area under dose-response curve [1, 6]",cell viability ([2]; 1 nM) [%],cell viability ([2]; 10 nM) [%],cell viability ([2]; 100 nM) [%],cell viability ([2]; 1000 nM) [%],cell viability ([2]; 10000 nM) [%],cell viability ([3]; 1 nM) [%],cell viability ([3]; 10 nM) [%],cell viability ([3]; 100 nM) [%],cell viability ([3]; 1000 nM) [%],cell viability ([3]; 10000 nM) [%],cell viability ([4]; 1 nM) [%],cell viability ([4]; 10 nM) [%],cell viability ([4]; 100 nM) [%],cell viability ([4]; 1000 nM) [%],cell viability ([4]; 10000 nM) [%]
Clc1ccc2c(c1Cl)CNCC2,< 0.0301,< 0.0301,< 0.0301,< 0.0301,,,,,,,,,,,,,,,
CC(C)Cc1sc(N)nc1-c1ccc(P(=O)(O)O)o1,< 0.0301,< 0.0301,< 0.0301,< 0.0301,,,,,,,,,,,,,,,
Cl.OC[C@H]1NC[C@@H](O)[C@@H](O)[C@@H]1O [1-Deoxymannojirimycin hydrochloride],< 0.0301,< 0.0301,< 0.0301,< 0.0301,,,,,,,,,,,,,,,
CN(C)c1nc(O)c2[nH]cnc2n1 [2-Dimethylamino-6-hydroxypurine],< 0.0301,< 0.0301,< 0.0301,< 0.0301,,,,,,,,,,,,,,,
"O=C(O)c1cc2sccc2[nH]1 [4H-thieno[3,2-b]pyrrole-5-carboxylic acid]",< 0.0301,< 0.0301,< 0.0301,< 0.0301,,,,,,,,,,,,,,,
[N-]=[N+]=CC(=O)CC[C@H](N)C(=O)O [6-Diazo-5-oxo-L-norleucine],< 0.0301,< 0.0301,< 0.0301,< 0.0301,,,,,,,,,,,,,,,
Sc1ncnc2nc[nH]c12 [6-mercaptopurine],0.0762,0.0564,0.0946,0.0609,> 100,95.1,92.6,84.3,93.1,> 100,78.2,66.1,93.3,88.8,94.8,97.6,44.2,35.1,16.3
O=C(O)CC[C@H](NC(=O)c1ccc([N+](=O)[O-])cc1)C(=O)O [(S)-2-(4-Nitrobenzamido)pentanedioic acid],< 0.0301,< 0.0301,< 0.0301,< 0.0301,,,,,,,,,,,,,,,
O=C1Nc2ccccc2/C1=C\NCCc1ccc(O)c(O)c1 [AC1NZZMF],< 0.0301,< 0.0301,< 0.0301,< 0.0301,,,,,,,,,,,,,,,
Cc1ccc(S(=O)(=O)NC2c3ccccc3Oc3ccccc32)cc1 [AH-7614],< 0.0301,< 0.0301,< 0.0301,< 0.0301,,,,,,,,,,,,,,,
C[C@]12CC[C@H](O)CC1=CC[C@@H]1[C@@H]2CC[C@]2(C)C(c3cccnc3)=CC[C@@H]12 [Abiraterone],< 0.0301,< 0.0301,< 0.0301,< 0.0301,,,,,,,,,,,,,,,
O=C(COc1ccc(C(=O)c2ccccc2)cc1)NC1CCN(Cc2ccccc2)CC1 [AdipoRon],< 0.0301,< 0.0301,< 0.0301,< 0.0301,,,,,,,,,,,,,,,
CCOC(=O)[C@H]1O[C@@H]1C(=O)N[C@@H](CC(C)C)C(=O)NCCC(C)C [Aloxistatin],< 0.0301,< 0.0301,< 0.0301,< 0.0301,,,,,,,,,,,,,,,
N[C@](CCCCB(O)O)(CCN1CCCCC1)C(=O)O [Arginase inhibitor 1],0.0306,0.0367,0.0592,,,,,,,,,,,,,,,,
Cc1noc2c1-c1ccccc1C(c1ccc(Cl)cc1)=N[C@H]2CC(N)=O [CPI-0610],0.21,0.157,0.168,0.289,90.3,93.9,84.9,39.1,21.7,> 100,97.1,84.1,60.5,58,> 100,79.3,68.4,22.7,15.6
Nc1ccn([C@@H]2O[C@H](CO)[C@@H](O)[C@@H]2O)c(=O)n1 [Cytarabine],0.242,0.214,0.216,0.329,99.3,96.1,76.9,84.9,60.7,> 100,50.7,59.9,12.8,4.95,> 100,39.5,46.5,11.6,5
CCOc1ccc(Cc2cc([C@@H]3O[C@H](CO)[C@@H](O)[C@H](O)[C@H]3O)ccc2Cl)cc1 [Dapagliflozin],< 0.0301,< 0.0301,< 0.0301,< 0.0301,,,,,,,,,,,,,,,
CCN(CC)CCN(Cc1ccc(-c2ccc(C(F)(F)F)cc2)cc1)C(=O)Cn1c(SCc2ccc(F)cc2)nc(=O)c2c1CCC2 [Darapladib],0.144,0.14,0.167,0.134,79.5,83,61.6,95.4,< 0,63.7,74.4,40.1,5.93,< 0,81.4,90.8,70.5,54.4,< 0
O=C(O)C(Cl)Cl [Dichloroacetate],< 0.0301,< 0.0301,< 0.0301,< 0.0301,,,,,,,,,,,,,,,
O=C1Oc2ccccc2C(=O)C1CC1C(=O)Oc2ccccc2C1=O (stereo not given) [Dicumarol],< 0.0301,< 0.0301,< 0.0301,< 0.0301,,,,,,,,,,,,,,,
CC12CCC(O)CC1CCC1C2CCC2(C)C(C3=CC(=O)OC3)CCC12O (stereo not given) [Digitoxigenin],0.372,0.376,0.386,0.374,95.1,74,63.2,21.5,13,94.8,91.8,67.9,> 100,> 100,> 100,90,16.6,0.964,1.87
C[C@H]1O[C@@H](O[C@H]2[C@@H](O)C[C@H](O[C@H]3[C@@H](O)C[C@H](O[C@H]4CC[C@@]5(C)[C@H](CC[C@@H]6[C@@H]5C[C@@H](O)[C@]5(C)[C@@H](C7=CC(=O)OC7)CC[C@]65O)C4)O[C@@H]3C)O[C@@H]2C)C[C@H](O)[C@@H]1O [Digoxin],0.459,0.479,0.423,0.486,96.2,84.5,85.3,13.2,8.18,76.9,86.8,69,89,> 100,94.1,81.3,11.5,2.91,1.13
O=c1c2ccccc2[se]n1-c1ccccc1 [Ebselen],< 0.0301,< 0.0301,< 0.0301,< 0.0301,,,,,,,,,,,,,,,

Compound,area under dose-response curve ([1]; co-treatment: AZD3965 100 nM),area under dose-response curve ([1]; co-treatment: DMSO vehicle),"area under dose-response curve [1, 5]","area under dose-response curve [1, 6]",cell viability ([2]; 1 nM) [%],cell viability ([2]; 10 nM) [%],cell viability ([2]; 100 nM) [%],cell viability ([2]; 1000 nM) [%],cell viability ([2]; 10000 nM) [%],cell viability ([3]; 1 nM) [%],cell viability ([3]; 10 nM) [%],cell viability ([3]; 100 nM) [%],cell viability ([3]; 1000 nM) [%],cell viability ([3]; 10000 nM) [%],cell viability ([4]; 1 nM) [%],cell viability ([4]; 10 nM) [%],cell viability ([4]; 100 nM) [%],cell viability ([4]; 1000 nM) [%],cell viability ([4]; 10000 nM) [%]
Clc1ccc(COC(Cn2ccnc2)c2ccc(Cl)cc2Cl)cc1 (stereo not given) [Econazole],,,,,83.3,77.2,93.6,> 100,52.8,72.2,> 100,93,63.4,< 0,74.2,89.5,93,70.1,1.03
C#Cc1cnc(O)nc1O [Eniluracil],< 0.0301,< 0.0301,< 0.0301,< 0.0301,,,,,,,,,,,,,,,
CC(/C=C1\SC(=S)N(CC(=O)O)C1=O)=C\c1ccccc1 [Epalrestat],< 0.0301,< 0.0301,< 0.0301,< 0.0301,,,,,,,,,,,,,,,
CCOC(=O)[C@@]1(CCCCCCOc2ccc(Cl)cc2)CO1 [Etomoxir],< 0.0301,< 0.0301,< 0.0301,< 0.0301,,,,,,,,,,,,,,,
Cc1c(-c2ccccc2)oc2c(C(=O)OCCN3CCCCC3)cccc2c1=O.Cl [Flavoxate],< 0.0301,< 0.0301,< 0.0301,< 0.0301,,,,,,,,,,,,,,,
O=C(O)CCc1ccc(NCc2cccc(Oc3ccccc3)c2)cc1 [GW9508],< 0.0301,< 0.0301,< 0.0301,< 0.0301,,,,,,,,,,,,,,,
c1ccc2c(c1)OCC(=C1NCCN1)O2 [Idazoxan],< 0.0301,< 0.0301,< 0.0301,< 0.0301,,,,,,,,,,,,,,,
C[C@]12O[C@H](C[C@]1(O)CO)n1c3ccccc3c3c4c(c5c6ccccc6n2c5c31)CNC4=O [Lestaurtinib],0.381,0.293,0.335,0.452,93.5,54.2,22.3,22.1,< 0,88.3,62.3,> 100,63.1,< 0,90.1,53,69,16,8.21
O=C(O)c1nn(Cc2ccc(Cl)cc2Cl)c2ccccc12 [Lonidamine],< 0.0301,< 0.0301,< 0.0301,< 0.0301,,,,,,,,,,,,,,,
C1CCc2nnc(C34CC5CC(CC(C5)C3)C4)n2CC1 [MERCK-544],< 0.0301,< 0.0301,< 0.0301,< 0.0301,,,,,,,,,,,,,,,
CC(Cc1ccc(O)c(O)c1)C(C)Cc1ccc(O)c(O)c1 (stereo not given) [Masoprocol],0.12,0.104,0.0826,0.142,> 100,92.3,90.5,85.6,51.7,> 100,85.3,89,31.9,2.01,90.1,91.5,80.4,35.8,5.51
COc1c(C)c2c(c(O)c1C/C=C(\C)CCC(=O)O)C(=O)OC2 [Mycophenolic acid],0.0599,< 0.0301,0.0302,0.0317,78.4,96.8,85,93.9,87.3,52.5,94.8,56.3,> 100,99.3,65.5,81.3,99.4,56.5,47.4
C1CCC(C(CC2CCCCN2)C2CCCCC2)CC1.O=C(O)/C=C\C(=O)O (stereo not given) [Perhexiline],0.133,0.125,0.16,0.198,,,,,,,,,,,,,,,
OCCN1CCN(CCCN2c3ccccc3Sc3ccc(Cl)cc32)CC1 [Perphenazine],0.0332,< 0.0301,0.0329,< 0.0301,,,,,,,,,,,,,,,
C=CCc1ccc2c(c1O)C(=O)c1ccccc1C2=O [R162],< 0.0301,< 0.0301,< 0.0301,< 0.0301,,,,,,,,,,,,,,,
O=C(c1ccc(OCCN2CCCCC2)cc1)c1c(-c2ccc(O)cc2)sc2cc(O)ccc12 [Raloxifene],< 0.0301,< 0.0301,< 0.0301,< 0.0301,,,,,,,,,,,,,,,
NC(=O)c1ncn([C@@H]2O[C@H](CO)[C@@H](O)[C@H]2O)n1 [Ribavirin],< 0.0301,< 0.0301,< 0.0301,< 0.0301,,,,,,,,,,,,,,,
Nc1ncnc2c1ncn2[C@@H]1O[C@H](CSCC[C@H](N)C(=O)O)[C@@H](O)[C@H]1O [S-Adenosyl Homocysteine],< 0.0301,< 0.0301,< 0.0301,< 0.0301,,,,,,,,,,,,,,,
CCCc1nn(C)c2c(O)nc(-c3cc(S(=O)(=O)N4CCN(C)CC4)ccc3OCC)nc12 [Sildenafil],< 0.0301,< 0.0301,< 0.0301,< 0.0301,,,,,,,,,,,,,,,
Cc1coc2c1C(=O)C(=O)c1c-2ccc2c(C)cccc12 [Tanshinone I],< 0.0301,< 0.0301,< 0.0301,< 0.0301,,,,,,,,,,,,,,,
CCOC(=O)N1c2ccc(C(F)(F)F)cc2[C@@H](N(Cc2cc(C(F)(F)F)cc(C(F)(F)F)c2)C(=O)OC)C[C@H]1CC [Torcetrapib],< 0.0301,< 0.0301,< 0.0301,< 0.0301,93.1,72.9,92.6,95.4,65.3,84.5,58.4,> 100,50.5,30,97,62.9,95.2,88.7,22.4
Oc1cc(Cl)ccc1Oc1ccc(Cl)cc1Cl [Triclosan],< 0.0301,< 0.0301,< 0.0301,< 0.0301,,,,,,,,,,,,,,,

# Source: the supplement of paper PMC8671470
